Like-named read-outs stand apart in the source and are kept apart here.
Columns and labels:
[1] = system: rice blast fungi; assay type: in vivo, Pyricularia grisea
[2] = system: Pyricularia grisea; assay type: in vivo

Structure (SMILES)	Inhibiting Ratio (%) (at 250 ppm) [1]	further results
Cc1ccc(NC(=O)Cc2csc(=Nc3cc(OC(C)C)c(Cl)cc3F)n2C)cc1Cl.Cl [Compound 257, 2-(4chloro-2-fluoro-5-isopropoxyphenylimino)-3-methyl-4-[N-(3-chloro-4-methylphenyl)carbamoylmethyl]-1,3-thiazol-4-ine hydrochloride]	88	–
Cl.O=C(Cc1csc(=Nc2ccc(F)cc2F)n1C1CC1)Nc1ccc(Br)cc1 [Compound 258, 2-(2,4-difluorophenylimino)-3-cyclopropyl-4-[N-(4-bromophenyl)carbamoylmethyl]-1,3-thiazol-4-ine hydrochloride]	91	–
Cc1ccc(N=c2scc(CC(=O)Nc3ccc(Br)cc3)n2C2CC2)c(C)c1.Cl [Compound 263, 2-(2,4-dimethylphenylimino)-3-cyclopropyl-4-[N-(4-bromophenyl)carbamoylmethyl]-1,3-thiazol-4-ine hydrochloride]	96	–
Br.CC(C)Oc1cccc(N=c2scc(CC(=O)Nc3ccc(Cl)cc3)n2C)c1 [Compound 303, 2-(3-isopropoxyphenylimino)-3-methyl-4-[N-(4-chlorophenyl)carbamoylmethyl]-1,3-thiazol-4-ine hydrobromide]	100	–
Br.CCc1ccc(N=c2scc(CC(=O)Nc3ccc(Cl)cc3)n2C)cc1 [Compound 304, 2-(4-ethylphenylimino)-3-methyl-4-[N-(4-chlorophenyl)carbamoylmethyl]-1,3-thiazol-4-ine hydrobromide]	100	–
Br.Cn1c(CC(=O)Nc2ccc(Cl)cc2)csc1=Nc1ccccc1 [Compound 305, 2-phenylimino-3-methyl-4-[N-(4-chlorophenyl)carbamoylmethyl]-1,3-thiazol-4-ine hydrobromide]	100	–
Br.COc1ccc(NC(=O)Cc2csc(=Nc3ccccc3)n2C)cc1 [Compound 306, 2-phenylimino-3-methyl-4-[N-(4-methoxyphenyl)carbamoylmethyl]-1,3-thiazol-4-ine hydrobromide]	93	–
Br.COc1ccc(N=c2scc(CC(=O)Nc3ccc(OC)cc3)n2C)cc1 [Compound 307, 2-(4-methoxyphenylimino)-3-methyl-4-[N-(4-methoxyphenyl)carbamoylmethyl]-1,3-thiazol-4-ine hydrobromide]	100	–
Br.COc1ccc(N=c2scc(CC(=O)Nc3ccc(Cl)cc3)n2C)cc1 [Compound 308, 2-(4-methoxyphenylimino)-3-methyl-4-[N-(4-chlorophenyl)carbamoylmethyl]-1,3-thiazol-4-ine hydrobromide]	99	–
Br.COc1ccc(NC(=O)Cc2csc(=Nc3ccc(C)cc3)n2C)cc1 [Compound 309, 2-(4-methylphenylimino)-3-methyl-4-[N-(4-methoxyphenyl)carbamoylmethyl]-1,3-thiazol-4-ine hydrobromide]	100	–
Br.Cc1ccccc1N=c1scc(CC(=O)Nc2ccc(Cl)cc2)n1C [Compound 310, 2-(2-methylphenylimino)-3-methyl-4-[N-(4-chlorophenyl)carbamoylmethyl]1,3-thiazol-4-ine hydrobromide]	100	–
Br.COc1ccc(NC(=O)Cc2csc(=Nc3ccccc3OC)n2C)cc1 [Compound 311, 2-(2-methoxyphenylimino)-3-methyl-4-[N-(4-methoxyphenyl)carbamoylmethyl]-1,3-thiazol-4-ine hydrobromide]	95	–
Br.COc1ccc(NC(=O)Cc2csc(=Nc3ccccc3C)n2C)cc1 [Compound 312, 2-(2-methylphenylimino)-3-methyl-4-[N-(4-methoxyphenyl)carbamoylmethyl]-1,3-thiazol-4-ine hydrobromide]	25	–
Br.COc1ccc(NC(=O)Cc2csc(=Nc3ccc(OC(C)C)cc3)n2C)cc1 [Compound 313, 2-(4-isopropoxyphenylimino)-3-methyl-4-[N-(4-methoxyphenyl)carbamoylmethyl]-1,3-thiazol-4-ine hydrobromide]	100	–
Br.CC(C)Oc1ccc(N=c2scc(CC(=O)Nc3ccc(Cl)cc3)n2C)cc1 [Compound 314, 2-(4-isopropoxyphenylimino)-3-methyl-4-[N-(4-chlorophenyl)carbamoylmethyl]-1,3-thiazol-4-ine hydrobromide]	100	–
Br.COc1ccc(NC(=O)Cc2csc(=Nc3ccc(F)cc3)n2C)cc1 [Compound 315, 2-(4-fluorophenylimino)-3-methyl-4-[N-(4-methoxyphenyl)carbamoylmethyl]-1,3-thiazol-4-ine hydrobromide]	97	–
Br.Cn1c(CC(=O)Nc2ccc(Cl)cc2)csc1=Nc1ccc(F)cc1 [Compound 316, 2-(4-fluorophenylimino)-3-methyl-4-[N-(4-chlorophenyl)carbamoylmethyl]-1,3-thiazol-4-ine hydrobromide]	100	–
Br.Cn1c(CC(=O)Nc2ccc(Cl)cc2)csc1=Nc1ccc(Br)cc1 [Compound 317, 2-(4-bromophenylimino)-3-methyl-4-[N-(4-chlorophenyl)carbamoylmethyl]-1,3-thiazol-4-ine hydrobromide]	100	–

Structure (SMILES)	Inhibiting Ratio (%) (at 250 ppm) [1]	further results
Br.COc1ccc(NC(=O)Cc2csc(=Nc3ccc(Br)cc3)n2C)cc1 [Compound 318, 2-(4-bromophenylimino)-3-methyl-4-[N-(4-methoxyphenyl)carbamoylmethyl]-1,3-thiazol-4-ine hydrobromide]	100	–
Br.Cn1c(CC(=O)Nc2ccc(Cl)cc2)csc1=Nc1ccc(Oc2ccccc2)cc1 [Compound 319, 2-(4-phenoxyphenylimino)-3-methyl-4-[N-(4-chlorophenyl)carbamoylmethyl]-1,3-thiazol-4-ine hydrobromide]	100	–
Br.COc1ccc(NC(=O)Cc2csc(=Nc3ccc(Oc4ccccc4)cc3)n2C)cc1 [Compound 320, 2-(4-phenoxyphenylimino)-3-methyl-4-[N-(4-methoxyphenyl)carbamoylmethyl]-1,3-thiazol-4-ine hydrobromide]	100	–
Br.Cc1cc(C)c(N=c2scc(CC(=O)Nc3ccccc3)n2C)c(C)c1 [Compound 321, 2-(2,4,6-trimethylphenylimino)-3-methyl-4-N-phenylcarbamoyl methyl-1,3-thiazol-4-ine hydrobromide]	97	–
Br.Cc1ccccc1NC(=O)Cc1csc(=Nc2ccc(C#N)cc2)n1C [Compound 324, 2-(4-cyanophenylimino)-3-methyl-4-[N-(2-methylphenyl)carbamoylmethyl]1,3-thiazol-4-ine hydrobromide]	90	–
Br.Cn1c(CC(=O)Nc2ccccc2)csc1=Nc1ccc(Cl)c(Cl)c1 [Compound 325, 2-(3,4-dichlorophenylimino)-3-methyl-4-N-phenylcarbamoylmethyl-1,3-thiazol-4-ine hydrobromide]	97	–
Br.COc1ccc(NC(=O)Cc2csc(=Nc3ccc(C(C)(C)C)cc3)n2C)cc1 [Compound 326, 2-(4-butyl(t-)phenylimino)-3-methyl-4-[N-(4-methoxyphenyl)carbamoylmethyl]-1,3-thiazol-4-ine hydrobromide]	97	–
Br.COc1ccccc1NC(=O)Cc1csc(=Nc2ccc(C(C)(C)C)cc2)n1C [Compound 327, 2-(4-butyl(t-)phenylimino)-3-methyl-4-[N-(2-methoxyphenyl)carbamoylmethyl]-1,3-thiazol-4-ine hydrobromide]	62	–
Br.COc1ccc(NC(=O)Cc2csc(=Nc3cccc(C)c3)n2C)cc1 [Compound 328, 2-(3-methylphenylimino)-3-methyl-4-[N-(4-methoxyphenyl)carbamoylmethyl]-1,3-thiazol-4-ine hydrobromide]	97	–
Cn1c(CC(=O)Nc2ccc(Cl)cc2)csc1=Nc1ccc(C#N)cc1 [Compound 329, 2-(4-cyanophenylimino)-3-methyl-4-[N-(4-chlorophenyl)carbamoylmethyl]-1,3-thiazol-4-ine]	100	–
COc1ccc(NC(=O)Cc2csc(=Nc3ccc(C#N)cc3)n2C)cc1 [Compound 330, 2-(4-cyanophenylimino)-3-methyl-4-[N-(4-methoxyphenyl)carbamoylmethyl]-1,3-thiazol-4-ine]	100	–
Cn1c(CC(=O)Nc2ccccc2)csc1=Nc1ccc(F)cc1F [Compound 331, 2-(2,4-difluorophenylimino)-3-methyl-4-[N-phenylcarbamoylmethyl]-1,3-thiazol-4-ine]	96	–
Cc1ccc(NC(=O)Cc2csc(=Nc3ccc(F)cc3F)n2C)cc1 [Compound 332, 2-(2,4-difluorophenylimino)-3-methyl-4-[N-(4-methylphenyl)carbamoylmethyl]-1,3-thiazol-4-ine]	100	–
Cc1cccc(NC(=O)Cc2csc(=Nc3cc(OC(C)C)c(Cl)cc3F)n2C)c1 [Compound 333, 2-(2-fluoro-4-chloro-5-isopropoxyphenylimino)-3-methyl-4-[N-(3-methylphenyl)carbamoylmethyl]-1,3-thiazol-4-ine]	98	–
CCCCc1ccc(N=c2scc(CC(=O)Nc3ccc(OC)cc3)n2C)cc1 [Compound 334, 2-[4-(n-butyl)phenylimino]-3-methyl-4-[N-(4-methoxyphenyl)carbamoylmethyl]-1,3-thiazol-4-ine]	96	–
CCc1ccc(NC(=O)Cc2csc(=Nc3ccc(C#N)cc3)n2C)cc1.Cl [Compound 341, 2-(4-cyanophenylimino)-3-methyl-4-[N-(4-ethylphenyl)carbamoylmethyl]-1,3-thiazol-4-ine hydrochloride]	–	controlling effect on rice blast ([2]; 2 ppm, hydrochloride): 96%; controlling effect on rice blast ([2]; 10 ppm, hydrochloride): 98%; controlling effect on rice blast ([2]; 100 ppm, hydrochloride): 93%
Cc1ccc(NC(=O)Cc2csc(=Nc3cc(OC(C)C)c(Cl)cc3F)n2C)cc1.Cl [Compound 342]	–	controlling effect on rice blast ([2]; 2 ppm): 90%; controlling effect on rice blast ([2]; 10 ppm): 98%; controlling effect on rice blast ([2]; 100 ppm): 92%

From patent publication US6921770B2 (priority 2000, dated 2005)
